The text below walks through data of US20060234987A1, “Neuroprotective benzo 1 3 oxathiol 2 ones” (priority 2003, published 2006).

In assay [1] the test system is SCG neurons. Nature of the assay: In vitro protection of SCG neurons from cisplatin killing. The following applies: Rattus norvegicus, Neuron; cisplatin 3 μg/mL, 48 hours, MTS viability; read-out: IC50 (±1 μM), protection of SCG neurons against cisplatin killing. The format is cell-based, Sprague Dawley rats. The procedure: The mechanism of cisplatin's anti-cancer action is not fully understood, but is believed to involve DNA binding and […]. Cisplatin is toxic to neurons. The addition of cisplatin (3 μg/mL) to cultured SCG neurons induces apoptosis of upwards of 80% of the neurons. The addition of selected compounds of Formula I to the cellular media, concurrently with cisplatin, protects upwards of 100% of the neurons, at drug concentrations ranging from 1 to 50 μM (see Example 64).
In Vitro Protection of SCG neurons from cisplatin killing. SCG neurons were isolated from day 1 neonatal Sprague Dawley rats, plated at a cell density of 10,000 cells/well, and incubated in Biowhittaker Ultraculture containing 1% Penstrep, 1% L-glutamine, 0.7% ARAC, 3% rat serum, and NGF (50 ng/mL, Calomone Labs) at 37° C., under a 5% CO2 atmosphere. After 5 days the cells were treated with compound and cisplatin (3 μg/mL). Viability was assessed 48 hours later using MTS (Promega) staining.

The subject of assay [2] is SCG ex-plant. Nature of the assay: Neurite out-growth in SCG ex-plants with minimal NGF. The class given is cell-based. The following applies: 30 μM compound, 1 ng/mL NGF, after 2 days. The procedure:
FIG. 3A is an SCG ex-plant cultured in the absence of NGF. No neurite extensions are visible. FIG. 3B. is an SCG ex-plant cultured in the presence of compound 23 (30 μM).
In order to determine if these compounds were capable of augmenting NGF signaling in vitro, compound was added to cultured SCG neurons in the presence of ‘minimal’ quantities of NGF. […] Similar results were obtained using NGF differentiated PC12 cells (not shown).

pIC50: −log10 of the molar value. Entries after “also recorded” stand apart in the source; their conditions may differ.

A word on the pIC50: it is −log10 of the IC50, conventionally taken in molar units. In the case of `O=c1oc2c(Sc3ccc4ccccc4c3)cc(O)cc2s1` [Compound 23, 5-Hydroxy-7-((2-naphthy)sulfanyl)benzo[1,3]oxathiol-2-one], the pIC50 in assay [1] is 4.82. Besides, the neurite outgrowth result in assay [2] was “Numerous ordered neurites are present; also recorded: visibly comparable to that observed under ‘optimal’ NGF concentrations”.
